From patent US11236106B2, “Cycloalkane-1,3-diamine derivative” (Daiichi Sankyo Company, Limited, priority 2018, dated 2022)
Structures can show the parent of a compound that is named as a salt. Where two headings read alike, the source gives them in different places.

What was measured:
[1] = test system: MOLM-13 cells; test: cells; conditions: Homo sapiens
Experimental: (§1) RPMI1640 medium supplemented with 10% FBS was used as a culture medium for each cells (MV-4-11, MOLM-13 cells, human AML cells, K562 cells, human CML cells). […] The prepared drug-containing plate was stored at −30° C. until use, and thawed before use.
(§2) The suspension of each cells was prepared with 10% FBS RPMI1640 culture medium so as to be 1000 cells/mL (K562) or 10000 cells/mL (MV-4-11, MOLM-13), and seeded on the drug-containing plate (40 μL/well) (day 0). The cells were cultured for additional 3 or 7 days. ATP measurement reagent (CellTiter-Glo (registered trademark, Promega Corporation) 2.0 Assay, model number G9242, Promega Corporation) was added to each well at 10 μL/well, on the day of the drug addition (day 0) and 3 days (day 3) or 7 days (day 7) after the drug addition. After affixing a black sticker on the bottom surface, the mixture was stirred using a microplate mixing deaeration machine (model name, Weltornado FK-62, Sakaki Dengyo Co., Ltd.) (stirring conditions, revolution 9, rotation 7, time 12).
(§3) The cell growth of the drug-added group from day 0 to day 3 or day 7 was calculated as T/C %, when the cell growth of the drug-free group was considered as 100%.

[2] = test system: MV-4-11 cells; test: cells; conditions: Homo sapiens
Experimental: as §1, §2, §3

[3] = test system: K562 cells; test: cells; conditions: Homo sapiens
Experimental: as §1, §2, §3

[4] = target: T1, menin and MLL (menin, Flag tagged; biotinylated MLL1 peptide 1-46aa) (Homo sapiens, UniProt O00255); test: biochemical
T1 sequence (O00255 1-610): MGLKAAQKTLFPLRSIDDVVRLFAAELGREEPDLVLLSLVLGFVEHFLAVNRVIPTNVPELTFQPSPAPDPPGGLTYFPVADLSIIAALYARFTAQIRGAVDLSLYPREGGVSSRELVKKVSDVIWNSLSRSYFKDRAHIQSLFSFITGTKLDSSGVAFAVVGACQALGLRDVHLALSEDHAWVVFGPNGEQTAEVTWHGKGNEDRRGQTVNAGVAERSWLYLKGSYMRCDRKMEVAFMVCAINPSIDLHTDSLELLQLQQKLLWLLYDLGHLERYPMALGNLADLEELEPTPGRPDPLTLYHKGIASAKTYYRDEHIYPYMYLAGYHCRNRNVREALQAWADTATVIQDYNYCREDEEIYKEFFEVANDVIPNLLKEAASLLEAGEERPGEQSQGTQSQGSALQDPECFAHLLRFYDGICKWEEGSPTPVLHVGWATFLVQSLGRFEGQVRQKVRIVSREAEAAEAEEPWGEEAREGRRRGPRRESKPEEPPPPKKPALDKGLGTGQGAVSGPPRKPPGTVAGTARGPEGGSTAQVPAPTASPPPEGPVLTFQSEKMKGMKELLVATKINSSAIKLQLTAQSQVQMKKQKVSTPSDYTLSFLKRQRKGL
Experimental: Then, the fluorescence signal by AlphaLISA (registered trademark, PerkinElmer Co., Ltd.) was measured using a plate reader (PerkinElmer Co., Ltd., EnVisionXcite).

[5] = test system: MLL-AF9-overexpressing AML-like cells (MA9 cells); test: Differentiation-inducing activity in MLL-AF9-overexpressing AML-like cells (flow cytometry of Gr-1 and cKit); format: cell-based, mouse; conditions: 7 days, 5 or 20 nM (Ex. 25, 27), 150 or 300 nM (Ex. 26), 50 or 100 nM (Ex. 22)
Experimental: The human MLL-AF9 fusion gene was introduced into cKit-positive mononuclear cells isolated from the myeloid of C57BL6 mouse, by retrovirus infection. MLL-AF9-overexpressing AML-like cells (MA9 cells) that acquired abnormal growth ability were established by liquid-culturing the cells after virus infection for a long period of time. Serum-free medium (GlutaMax, P/S, Stem Pro-34 medium containing 10 ng/ml mIL-3, ng/mL mSCF and 10 ng/mL human Oncostatin M) was used as a culture medium.
For the control group, DMSO was added thereto at a final concentration of 0.1% (2 μL/well) (day 0). After culturing for 7 days (day 7), the cells were collected, and blocked with 5% FBS/PBS containing 10% Mouse BD Fc Block (BD) for 10 minutes at room temperature, and then any of various antibodies (Gr-1-FITC or CD117 (cKit)-APC: Biolegend) was added thereto at a final concentration of 0.4 μg/sample, and the mixture was reacted on ice for 30 minutes. Then, dead cell staining dye DAPI (0.2 mg/mL) was added thereto at so as to be […], and the reaction was carried out on ice for additional 2 minutes under shading. Then, the expression level of each surface antigen of the cells was measured by NovoCyte flow cytometer (LMS). The obtained data were analyzed by FlowJo software (Becton Dickinson), and the rate of each surface antigen-expressing cells in the living cells excluding dead cells was graphed.

[6] = MOLM-13, 72 h, read-out: GI50 (μM) Day3 MOLM-13
[7] = MOLM-13, 168 h, read-out: GI50 (μM) Day7 MOLM-13
[8] = MV4-11, 72 h, read-out: GI50 (μM) Day3 MV4;11
[9] = MV4-11, 168 h, read-out: GI50 (μM) Day7 MV4;11
[10] = K562, 72 h, read-out: GI50 (μM) Day3 K562
[11] = K562, 168 h, read-out: GI50 (μM) Day7 K562
[12] = cell free IC50 (nM), 1 nM menin, 10 nM biotinylated MLL1 peptide, AlphaLISA
[13] = IC50, binding inhibitory activity between menin and MLL, AlphaLISA, 1 nM menin, 10 nM biotinylated MLL1 peptide

Row | Structure (SMILES) | GI50 [1, 6] [µM] | GI50 [2, 8] [µM] | GI50 [3, 10] [µM] | IC50 [4, 12] [nM] | IC50 [4, 13] [nM] | other results
1 | COc1cncc(-c2ccc(CN[C@@H]3C[C@H](Nc4ncnc5sc(CC(F)(F)F)cc45)C[C@H](OC)C3)cc2)c1 (single isomer, unassigned) [Example 18A, Hydrochloride] | 2.83 | 0.26 | 5.7 | 10.3 |  | GI50 [1, 7]: 0.448 µM; GI50 [2, 9]: 0.131 µM; GI50 [3, 11]: 5.01 µM
2 | CC(N[C@H]1CC[C@@H](N(C)c2ncnc3sc(CC(F)(F)F)cc23)C1)c1ccccc1 (mixture of isomers) [Example 33, (1R,3S)-N^1-methyl-N^3-(1-phenylethyl)-N^1-[6-(2,2,2-trifluoroethyl)thieno[2,3-d]pyrimidin-4-yl]cyclopentane-1,3-diamine (diastereomer mixture)] | 4.82 | 5.22 | 6.44 | 2420 |  | 
3 | COc1cncc(-c2ccc(CN[C@H]3C[C@@H](Nc4ncnc5sc(CC(F)(F)F)cc45)C[C@@H](OC)C3)cc2)c1 (single isomer, unassigned) [Example 18B, Hydrochloride] | 3.08 | 2.16 | 5.18 | 182 |  | GI50 [1, 7]: 3.97 µM; GI50 [2, 9]: 1.47 µM; GI50 [3, 11]: 4.71 µM
4 | COc1cc(-c2ccc(CN[C@H]3C[C@@H](O)[C@@H](N(C)c4ncncc4Oc4ccc(F)c(F)c4C(=O)N(C(C)C)C(C)C)C3)cc2)nnc1OC [Example 104, 6-[(4-{[(1S,2R,4R)-4-({[4-(5,6-dimethoxypyridazin-3-yl)phenyl]methyl}amino)-2-hydroxycyclopentyl](methyl)amino}pyrimidin-5-yl)oxy]-2,3-difluoro-N,N-di(propan-2-yl)benzamide hydrochloride] |  |  |  |  | 6.3 | GI50 ([1]; MOLM-13, 72 h, read-out: GI50, cell growth inhibitory activity, MOLM-13, day 3): 0.7 µM; GI50 ([1]; MOLM-13, 168 h, read-out: GI50, cell growth inhibitory activity, MOLM-13, day 7): 0.187 µM; GI50 ([2]; MV4-11, 72 h, read-out: GI50, cell growth inhibitory activity, MV-4-11, day 3): 0.097 µM; GI50 ([2]; MV4-11, 168 h, read-out: GI50, cell growth inhibitory activity, MV-4-11, day 7): 0.066 µM; GI50 ([3]; K562, 72 h, read-out: GI50, cell growth inhibitory activity, K562, day 3): > 5 µM; GI50 ([3]; K562, 168 h, read-out: GI50, cell growth inhibitory activity, K562, day 7): > 5 µM
5 | COc1cc(-c2ccc(CN[C@H]3C[C@@H](O)[C@@H](N(C)c4ncnc5sc(CC(F)(F)F)cc45)C3)cc2)cnc1C#N [Example 22, 5-[4-({[(1R,3R,4S)-3-hydroxy-4-{methyl[6-(2,2,2-trifluoroethyl)thieno[2,3-d]pyrimidin-4-yl]amino}cyclopentyl]amino}methyl)phenyl]-3-methoxypyridine-2-carbonitrile Hydrochloride] |  |  |  | 3.8 |  | rate of the myeloid cell differentiation antigen Gr-1-expressing cells in living cells ([5]; versus control group (FIG. 10)): increased the rate of Gr-1-positive cells; rate of the cKit-expressing cells in living cells ([5]; versus control group (FIG. 11)): reduced the rate of cKit-positive cells
6 | COc1cncc(-c2ccc(CN[C@@H]3C[C@H](Nc4ncnc5sc(CC(F)(F)F)cc45)C[C@H](c4ncco4)C3)cc2)c1 (single isomer, unassigned) [Example 19A, Hydrochloride] | 3.2 | 0.489 | 5.51 | 33.5 |  | GI50 [1, 7]: 0.906 µM; GI50 [2, 9]: 0.295 µM; GI50 [3, 11]: 5.39 µM
7 | COc1cnc(-c2ccc(CN[C@H]3C[C@@H](O)[C@@H](N(C)c4ncnc5sc(CC(F)(F)F)cc45)C3)cc2)nc1OC [Example 97, (1R,2S,4R)-4-({[4-(4,5-dimethoxypyrimidin-2-yl)phenyl]methyl}amino)-2-{methyl[6-(2,2,2-trifluoroethyl)thieno[2,3-d]pyrimidin-4-yl]amino}cyclopentan-1-ol hydrochloride] |  |  |  |  | 3.9 | 
8 | [2H]C([2H])([2H])N(c1ncc(-c2ccc(CN[C@H]3C[C@@H](O)[C@@H](N(C)c4ncnc5sc(CC(F)(F)F)cc45)C3)cc2)cc1OC)C([2H])([2H])[2H] [Example 122, (1R,2S,4R)-4-({[4-(6-{bis[(^2H3)methyl]amino}-5-methoxypyridin-3-yl)phenyl]methyl}amino)-2-{methyl[6-(2,2,2-trifluoroethyl)thieno[2,3-d]pyrimidin-4-yl]amino}cyclopentan-1-ol] |  |  |  |  | 1.7 | 
9 | COc1cncc(-c2ccc(CN[C@@H]3C[C@H](Nc4ncnc5sc(CC(F)(F)F)cc45)C[C@H](C(=O)N(C)C)C3)cc2)c1 (single isomer, unassigned) [Example 17B, Hydrochloride] |  |  |  | 13.3 |  | 
10 | COc1nc(N(C)[C@H]2C[C@@H](NCc3ccc(-c4cc(OC)c(Oc5ccccc5)nn4)cc3)C[C@H]2O)c2cc(CC(F)(F)F)sc2n1 [Example 114, (1R,2S,4R)-4-({[4-(5-methoxy-6-phenoxypyridazin-3-yl)phenyl]methyl}amino)-2-{[2-methoxy-6-(2,2,2-trifluoroethy)thieno[2,3-d]pyrimidin-4-yl](methyl)amino}cyclopentan-1-ol hydrochloride] |  |  |  |  |  | IC50 [4]: 1.5 nM
11 | COc1cncc(-c2ccc(CN[C@H]3C[C@@H](Nc4ncnc5sc(CC(F)(F)F)cc45)C[C@@H](c4ncco4)C3)cc2)c1 (single isomer, unassigned) [Example 19B, Hydrochloride] | 4.03 | 3.18 | 5.45 | 1810 |  | GI50 [1, 7]: 5.75 µM; GI50 [2, 9]: 2.6 µM; GI50 [3, 11]: 5.41 µM
12 | CNc1nc(N(C)[C@H]2C[C@@H](NCc3ccc(Nc4cccnc4)cc3)C[C@@H]2O)c2cc(CC(F)(F)F)sc2n1 [Example 54, (1S,2S,4R)-2-{methyl[2-(methylamino)-6-(2,2,2-trifluoroethyl)thieno[2,3-d]pyrimidin-4-yl]amino}-4-[({4-[(pyridin-3-yl)amino]phenyl}methyl)amino]cyclopentan-1-ol hydrochloride] |  |  |  | 1 |  | 
13 | CN(c1ncnc2sc(CC(F)(F)F)cc12)[C@H]1C[C@@H](NCc2ccc(-c3cccc(N(C)S(C)(=O)=O)c3)cc2)C[C@H]1O [Example 71, N-[4′-({[(1R,3R,4S)-3-hydroxy-4-{methyl[6-(2,2,2-trifluoroethyl)thieno[2,3-d]pyrimidin-4-yl]amino}cyclopentyl]amino}methyl)[1,1′-biphenyl]-3-yl]-N-methylmethanesulfonamide hydrochloride] |  |  |  |  | 0.6 | 
14 | COc1cncc(-c2ccc(CN[C@@H]3C[C@H](O)C[C@H](Nc4ncnc5sc(CC(F)(F)F)cc45)C3)cc2)c1 (single isomer, unassigned) [Example 15B, Hydrochloride] |  |  |  | 403 |  | 
15 | N#Cc1cc2cc(CN[C@@H]3CC[C@@H](Nc4ncnc5sc(CC(F)(F)F)cc45)C3)ccc2[nH]1 [Example 1, 5-({[(1R,3R)-3-{[6-(2,2,2-trifluoroethyl)thieno[2,3-d]pyrimidin-4-yl]amino}cyclopentyl]amino}methyl)-1H-indole-2-carbonitrile Hydrochloride] |  |  |  | 494 |  | 
16 | COc1nc(N(C)[C@H]2C[C@@H](NCc3ccc(-c4cnc(F)c(OC)c4)cc3)C[C@H]2O)c2cc(CC(F)(F)F)sc2n1 [Example 91, (1R,2S,4R)-4-({[4-(6-fluoro-5-methoxypyridin-3yl)phenyl]methyl}amino)-2{[2-methoxy6-(2,2,2-trifluoroethyl)thieno[2,3-d]pyrimidin-4-yl](methyl)amino}cyclopentan-1-ol hydrochloride] |  |  |  |  | 1.3 | 
